Measured values from patent US4678800A, “Gamma-r-glutamoyl derivatives” (Ciba-Geigy Corporation, priority 1984, dated 1987).

What was measured:
[1] = test system: spontaneous hypertensive rat; experiment: in vivo lowering effect on blood pressure and heart rate in hypertensive rats; settings: dose of 10 mg/kg p.o. or lower
Excerpt: This is demonstrable by in vivo or in vitro animal tests, using advantageously mammals, e.g., rats, cats, dogs or isolated organs thereof, as test objects. The animals may either be normotensive or hypertensive e.g., genetically hypertensive rats, or renal hypertensive rats and dogs, and sodium-depleted dogs. Said compounds can be applied to them enterally or parenterally, advantageously orally or intravenously, for example within gelatin capsules or in the form of starch suspensions or aqueous solutions, respectively. The applied dosage may range between about 0.01 and 50 mg/kg/day, preferably between about 0.1 and 25 mg/kg/day, advantageously between about 0.1 and 10 mg/kg/day.
The in vivo lowering effect on the blood pressure is recorded either directly by means of a catheter, for example placed in the dog's femoral artery, or indirectly by sphygmomanometry at the rat's tail, and a transducer, expressing the blood pressure prior and after dosing in mm Hg. Thus, for example, the representative members of the compounds of this invention, illustrated by the examples herein, are effective in hypertensive rats and at p.o. doses as low or lower than 10 mg/kg/day.

[2] = test system: angiotensin I converting enzyme; experiment: inhibition of the angiotensin I pressor response in anesthetized normotensive rats; assay type: in vivo, rat; settings: intravenous dose as low as 0.1 mg/kg
Experimental: The enzyme renin, normally causes specific hydrolysis of the circulating protein renin-substrate. This hydrolysis generates angiotensin I, which is further hydrolyzed by the action of said converting enzyme to the potent vasoconstrictor angiotensin II. The inhibition of said enzyme prevents the generation of angiotensin II from I and, therefore, attenuates any pressure response following an angiotensin I challenge.
The corresponding in vivo test is performed with male, normotensive rats, which are anesthetized with 100-120 mg/kg i.p. of sodium ethyl-(1-methylpropyl)-malonylthiourea. A femoral artery and saphenous vein are cannulated for direct blood pressure measurement and i.v. administration of angiotensin I and compounds of this invention. After the basal blood pressure is stabilized, pressor responses to 3 challenges of 0.33 μg/kg of angiotension I i.v. , in 5 minute intervals, are obtained. Such pressure responses are again obtained 5, 10, 15, 30 and 60 minutes after either i.v. or p.o. administration (stomach tube) of the compounds to be tested, and compared with the initial responses. Any observed decrease of said pressor response is an indication of angiotensin I converting enzyme inhibition, ranging up to 80% or greater after 10 mg/kg i.v., or lower doses, which decrease may be sustained up to 60 minutes.

[3] = target: T1, angiotensin-converting enzyme isolated from lungs of adult male rabbits (Oryctolagus cuniculus, UniProt P12822); experiment: in vitro inhibition of the angiotensin-converting enzyme (hippuryl-histidyl-leucine substrate); assay type: biochemical; settings: rabbit lung enzyme, 37° for 30 minutes
T1 construct: angiotensin-converting enzyme isolated from lungs of adult male rabbits; from tissue; host or cells: lungs of adult male rabbits
T1 sequence (P12822 34-1310): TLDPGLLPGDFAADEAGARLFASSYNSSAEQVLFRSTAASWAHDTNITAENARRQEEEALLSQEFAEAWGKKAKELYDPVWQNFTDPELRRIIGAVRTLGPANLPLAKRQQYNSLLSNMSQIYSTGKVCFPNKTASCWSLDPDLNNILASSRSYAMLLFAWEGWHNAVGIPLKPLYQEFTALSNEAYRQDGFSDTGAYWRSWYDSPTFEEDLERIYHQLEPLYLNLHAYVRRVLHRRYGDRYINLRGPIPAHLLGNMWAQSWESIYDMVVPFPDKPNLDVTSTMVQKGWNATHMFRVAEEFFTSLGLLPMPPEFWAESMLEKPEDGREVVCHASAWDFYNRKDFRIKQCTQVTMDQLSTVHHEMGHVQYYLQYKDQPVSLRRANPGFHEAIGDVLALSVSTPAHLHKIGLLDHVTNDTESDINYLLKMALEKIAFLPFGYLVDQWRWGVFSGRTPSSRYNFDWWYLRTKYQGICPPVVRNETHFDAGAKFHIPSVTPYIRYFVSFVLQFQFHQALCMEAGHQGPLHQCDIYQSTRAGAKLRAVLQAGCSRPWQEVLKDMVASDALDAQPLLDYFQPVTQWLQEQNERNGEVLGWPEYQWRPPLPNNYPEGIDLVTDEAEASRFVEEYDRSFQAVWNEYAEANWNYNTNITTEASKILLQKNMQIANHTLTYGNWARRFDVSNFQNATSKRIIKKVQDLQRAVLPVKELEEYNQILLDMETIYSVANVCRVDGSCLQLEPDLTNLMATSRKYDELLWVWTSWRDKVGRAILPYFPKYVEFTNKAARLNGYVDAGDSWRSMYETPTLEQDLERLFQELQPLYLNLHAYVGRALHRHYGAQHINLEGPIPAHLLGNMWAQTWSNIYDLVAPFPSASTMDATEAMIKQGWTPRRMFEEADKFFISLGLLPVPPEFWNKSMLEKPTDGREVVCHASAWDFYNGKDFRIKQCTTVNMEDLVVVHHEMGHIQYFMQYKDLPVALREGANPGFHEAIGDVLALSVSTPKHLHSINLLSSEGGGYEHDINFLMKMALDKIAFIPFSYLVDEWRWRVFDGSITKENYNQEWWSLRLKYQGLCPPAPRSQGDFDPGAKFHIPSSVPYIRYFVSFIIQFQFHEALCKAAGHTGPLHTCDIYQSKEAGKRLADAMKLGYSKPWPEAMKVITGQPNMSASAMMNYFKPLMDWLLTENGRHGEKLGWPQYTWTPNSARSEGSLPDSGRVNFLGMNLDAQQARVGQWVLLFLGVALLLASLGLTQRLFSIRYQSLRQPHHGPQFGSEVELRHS
Experimental: Biophys. Acta 293, 451 (1973). According to this method, said compounds are dissolved at about 1 mM concentrations in phosphate buffer, externally cooled with ice. To these solutions various μl of histidyl-leucine in phosphate buffer are added, followed by 100 μl of 5 mM hippuryl-histidyl-leucine in phosphate buffer and 50 μl of the angiotensin-converting enzyme isolated from lungs of adult male rabbits, which is freshly prepared in Tris buffer containing potassium and magnesium chloride, as well as sucrose. Said solutions are incubated at 37° for 30 minutes and combined with 0.75 m- of 0.6 N aqueous sodium hydroxide to stop further reaction. Then 100 μl of o-phthalaldehyde are added at room temperature, and 10 minutes later 100 μl of 6N hydrochloric acid are also added. These samples are read against water in a spectrophotometer set at 360 nm, and the optical densities thereof estimated. They are corrected for the standard curve via a conversion factor expressing nanomoles of histidyl-leucine formed during said 30 minute incubation period. The results are plotted against drug concentration to determine the IC50, i.e., the drug concentration which gives half the activity of the control sample containing no drug. Again, said representative members of the compounds of this invention are very effective in this in vitro test system.

IC50 [3] [nM]	SMILES	decrease of heart rate [1]	lowering of blood pressure [1]	inhibition of the pressor response following angiotensin I challenge [2]
~7	O=C(N[C@H](CCC(=O)N1c2ccccc2C[C@H]1C(=O)O)C(=O)O)OCc1ccccc1 [Example 1, 1-(N-Benzyloxycarbonyl-γ-R-glutamyl)indoline-2-S-carboxylic acid]	decrease the heart rate	lower blood pressure	about 70%
	O=C(N[C@H](CCC(=O)N1c2ccccc2C[C@H]1C(=O)O)C(=O)O)c1cccnc1 [Example 5, 1-(N-Nicotinoyl-γ-R-glutamyl)-indoline-2S-carboxylic acid]	decrease the heart rate	lower blood pressure	
